Results taken from patent publication US7105679B2, “Heteroatom containing tetracyclic derivatives as selective estrogen receptor modulators” (priority 2001, dated 2006).

Key:
[1] = molecular target: T1, human estrogen receptor α (Homo sapiens, UniProt P03372); experiment: Estrogen Receptor α Flash Plate Assay (binding of radiolabeled estrogen); conditions: flash plate binding, 0.5 nM radiolabeled estrogen; number in brackets = No. of determinations; NA = no detected activity at test concentration; read-out: Estrogen Receptor α in μM (No.)
T1 construct: purchased Panvera
T1 sequence (P03372 1-595): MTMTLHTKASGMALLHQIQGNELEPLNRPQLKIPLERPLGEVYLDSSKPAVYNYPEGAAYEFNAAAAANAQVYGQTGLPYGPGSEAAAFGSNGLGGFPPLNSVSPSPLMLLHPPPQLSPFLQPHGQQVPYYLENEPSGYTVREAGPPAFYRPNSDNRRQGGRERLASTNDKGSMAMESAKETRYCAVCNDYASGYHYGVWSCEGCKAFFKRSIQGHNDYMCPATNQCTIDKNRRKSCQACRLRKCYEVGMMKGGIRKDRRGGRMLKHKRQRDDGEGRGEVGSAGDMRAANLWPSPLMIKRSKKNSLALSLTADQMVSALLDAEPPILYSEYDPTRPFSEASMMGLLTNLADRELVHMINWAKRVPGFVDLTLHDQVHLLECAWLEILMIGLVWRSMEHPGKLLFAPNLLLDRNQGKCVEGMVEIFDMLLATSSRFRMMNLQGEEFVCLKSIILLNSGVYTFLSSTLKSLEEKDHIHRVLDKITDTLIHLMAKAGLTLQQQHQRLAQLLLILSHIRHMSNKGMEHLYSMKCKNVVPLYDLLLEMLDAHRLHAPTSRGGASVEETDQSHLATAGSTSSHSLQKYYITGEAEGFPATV

MCF-7 cells = experiment: MCF-7 Cell Proliferation Assay (14C-thymidine, agonist and antagonist mode); type: cell-based; conditions: Homo sapiens, number in brackets = number of tests, NA = no detected activity at test concentration; for EC50: MCF7, agonist mode; for IC50: MCF7, antagonist mode with 10 nM 17β-estradiol
hER-β = molecular target: T2, hER-β (Homo sapiens, UniProt Q92731); experiment: Estrogen Receptor β Fluorescence Polarization Assay (binding of Fluormone ES2); conditions: fluorescence polarization binding, Fluormone ES2; number in brackets = No. of determinations; NA = no detected activity at test concentration; read-out: Estrogen Receptor β in μM (No.)
T2 construct: purchased Panvera
Text: This assay monitors binding of a fluorescent analog of estrogen (Fluormone ES2, Panvera) to the estrogen receptor. Plates are read in a fluorometer that can be set to polarization mode. A decrease in […] relative to vehicle control is an indication of binding of a compound to the receptor.
It is crucial to avoid introduction of air bubbles into the reaction in each well of the 96 well plate throughout this procedure. (Bubbles on the surface of the reaction disrupt light flow, affecting the polarization reading.) However, it is also crucial to effectively mix the reaction components upon addition to the well.
On ice, a 2× standard mixture of Assay Buffer (Panvera), 10 nM DTT and 40 nM ES2 was prepared. On ice, a 2× reaction mixture of Assay Buffer (Panvera), and 20 nM hER-β (Panvera) and 40 nM ES2 was also prepared.
Dilutions of test compound were prepared in 30% (v/v) dimethyl sulfoxide/50 mM HEPES, pH 7.5. At this point, the dilutions were 40× the final required concentration.
The standard mixture at 50 μL was then added to each well. The reaction mixture at 48 μL was added to all wells. The compound dilution at 2.5 μL was added to the appropriate wells. The reaction mixtures were mixed using a manual pipette, a roll of aluminum foil adhesive cover was placed on the plate and the plate incubated at room temperature for 1 hour.

Ishikawa cells = experiment: Alkaline Phosphatase Assay in Human Endometrial Ishikawa Cells (agonist and antagonist mode); type: cell-based; conditions: Homo sapiens, number in brackets = number of tests, NA = no detected activity at test concentration; for EC50: agonist mode; for IC50: antagonist mode with 10 nM 17β-estradiol

T2 sequence (Q92731 whole entry): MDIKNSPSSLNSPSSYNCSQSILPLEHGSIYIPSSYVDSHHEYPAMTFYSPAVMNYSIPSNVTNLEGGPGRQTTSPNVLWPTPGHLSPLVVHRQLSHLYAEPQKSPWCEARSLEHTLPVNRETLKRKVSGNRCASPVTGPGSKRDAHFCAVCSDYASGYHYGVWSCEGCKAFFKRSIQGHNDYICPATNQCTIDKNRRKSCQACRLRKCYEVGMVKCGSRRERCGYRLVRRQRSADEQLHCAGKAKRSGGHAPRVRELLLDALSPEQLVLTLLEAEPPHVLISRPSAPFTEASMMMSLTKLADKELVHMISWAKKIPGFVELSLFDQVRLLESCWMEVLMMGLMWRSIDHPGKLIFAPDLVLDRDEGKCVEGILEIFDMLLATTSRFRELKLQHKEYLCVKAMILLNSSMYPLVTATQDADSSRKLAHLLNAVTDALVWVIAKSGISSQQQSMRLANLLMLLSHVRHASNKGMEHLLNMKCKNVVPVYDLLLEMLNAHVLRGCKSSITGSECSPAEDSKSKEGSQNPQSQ

SMILES | melting point [°C] | IC50 [1] [µM] | EC50 (MCF-7 cells) [nM] | IC50 (MCF-7 cells) [nM] | IC50 (hER-β) [µM] | EC50 (Ishikawa cells) [nM] | IC50 (Ishikawa cells) [nM]
CC(C)(C)[Si](C)(C)Oc1ccc2c(c1)OC(O)C1=C2COc2cc(O[Si](C)(C)C(C)(C)C)ccc21 (centres unmarked) | 188 to 190 |  |  |  |  |  | 
CC(C)(C)[Si](C)(C)Oc1ccc2c(c1)OCc1c-2c(=O)oc2cc(F)ccc12 | 197 to 198 |  |  |  |  |  | 
O=c1oc2cc(O)ccc2c2c1-c1ccc(O)cc1OC2 [Compound 1, 2,8-Dihydroxy-11H-chromeno[4,3-c]chromen-5-one] | > 350 | 0.505 | 1200 | > 10000 | 0.061 | 130 | > 10000
O=c1oc2cc(F)ccc2c2c1-c1ccc(O)cc1OC2 [Compound 37, 8-Fluoro-2-hydroxy-11H-chromeno[4,3-c]chromen-5-one] | 259 to 260 |  |  |  |  |  | 

Further lines, results first:

melting point [°C] | IC50 [1] [µM] | EC50 (MCF-7 cells) [nM] | IC50 (MCF-7 cells) [nM] | IC50 (hER-β) [µM] | EC50 (Ishikawa cells) [nM] | IC50 (Ishikawa cells) [nM] | SMILES
150 to 151 |  |  |  |  |  |  | CC(C)(C)[Si](C)(C)Oc1ccc2c(c1)OCc1c-2c(=O)oc2cc(O[Si](C)(C)C(C)(C)C)ccc12
166 to 167 |  |  |  |  |  |  | CC(C)(C)[Si](C)(C)Oc1ccc2c(c1)OCC1=C2C(O)Oc2cc(F)ccc21 (centres unmarked)
200 to 201 |  | > 10000 | > 10000 |  | > 10000 | > 10000 | COc1ccc2c(c1)OCc1c-2c(=O)oc2cc(OC)ccc12 [Compound 2, 2,8-DiMethoxy-11H-chromeno[4,3-c]chromen-5-one]
 | 0.62 | > 10000 | > 1000 | 0.165 | > 10000 | 1600 | CC(C)(C)C(=O)Oc1ccc2c(c1)OC(C)(c1ccc(OCCCN3CCCCC3)cc1)C1=C2COc2cc(OC(=O)C(C)(C)C)ccc21 (centres unmarked) [Compound 43, 2,2-Dimethyl-propionic acid 8-(2,2-dimethyl-propionyloxy)-11-methyl-11-[4-(3-piperidin-1-yl-propoxy)-phenyl]-5,11-dihydro-chromeno[4,3-c]chromen-2-yl ester]
